{"source": "patent US20130288364A1", "about": "“ENGINEERED KINETOCHORES AND USES THEREOF” (Whitehead Institute for Biomedical Research, priority 2010, published 2013)", "test_system": "U2OS-LacO cells", "test": "Interaction of LacI foci with spindle microtubules (foci shape)", "type": "cell-based, human", "details": "2 μM", "text": "We next sought to test the interaction of these foci with spindle microtubules. […] This deformation of the LacI foci could represent microtubules binding the structure to opposite spindle poles. In such a situation, tension across the region would result in a change in the shape of the chromatin. Consistent with microtubule interactions with the foci, the deformed shape of the GFP-CENP-T-ΔC-LacI focus was dependent on microtubules, as nocodazole treatment relaxed this to a circular morphology, with an average length to width ration of 1.15 (FIG. 6B). See also FIG. 8. Deformation of the GFP-CENP-T-ΔC-LacI focus was exacerbated by treatment with the Aurora B inhibitor ZM447439, which has been proposed to regulate both kinetochore-microtubule attachments (Cheeseman and Desai, 2008) and chromatinstructure (Lipp et al., 2007).\nImmunofluorescence in human cells was conducted as described previously (Kline et al., 2006). […]"}
{"smiles": "COc1cc2c(Nc3ccc(NC(=O)c4ccccc4)cc3)ncnc2cc1OCCCN1CCOCC1", "note": "[ZM447439]", "values": [{"measurement": "effect on deformation of the GFP-CENP-T-ΔC-LacI focus", "result": "exacerbated"}]}
